# Measured values from article PMC11672637, “7-O-Carboxylic Acid-Substituted 3-O-Alkyl Difluoroquercetin; An Aztreonam-Potentiating Agent Against Carbapenemase-Producing Pseudomonas aeruginosa Through Simultaneous Inhibition of Metallo-β-Lactamase and Efflux Pump” (Antibiotics, 2024).
# Experiments:
# Experiment in all cases: MIC / checkerboard with ATM
# Set-up in all cases: key to Susceptibility category: S: susceptible; I: intermediate; R: resistant
# PA-021, blaIMP = assay type: cell-based, P. aeruginosa; conditions: PA-021, Table S2
# PA-040, blaNDM = assay type: cell-based, P. aeruginosa; conditions: PA-040; Table S2
# PA-030, blaIMP = assay type: cell-based, P. aeruginosa; conditions: PA-030; Table S2
# PA-033, blaNDM = assay type: cell-based, P. aeruginosa; conditions: PA-033; Table S2
# PA-035, blaGES = assay type: cell-based, P. aeruginosa; conditions: PA-035, Table S2; for MIC: Pseudomonas aeruginosa, read-out: MIC value
# PA-037, blaIMP/NDM = assay type: cell-based, P. aeruginosa; conditions: PA-037; Table S2
# PA-032, blaIMP = assay type: cell-based, P. aeruginosa; conditions: PA-032; Table S2
# PA-031, blaNDM = assay type: cell-based, P. aeruginosa; conditions: PA-031; Table S2
# PA-042, blaIMP/NDM = assay type: cell-based, P. aeruginosa; conditions: PA-042, Table S2
# PA-025, blaNDM = assay type: cell-based, P. aeruginosa; conditions: PA-025; Table S2
# PA-009, blaGES = assay type: cell-based, P. aeruginosa; conditions: PA-009, Table S2
# PA-002, blaIMP = assay type: cell-based, P. aeruginosa; conditions: PA-002, Table S2; for MIC: Pseudomonas aeruginosa, read-out: MIC value
# [1] = test system: NDM-1-Producing P. aeruginosa (PA-017, blaNDM); assay type: cell-based; conditions: PA-017; Table S2
# PA-028, blaNDM = assay type: cell-based, P. aeruginosa; conditions: PA-028; Table S2
# PA-044, blaNDM = assay type: cell-based, P. aeruginosa; conditions: PA-044; Table S2
# PA-029, blaIMP = assay type: cell-based, P. aeruginosa; conditions: PA-029; Table S2
# PA-041, blaNDM = assay type: cell-based, P. aeruginosa; conditions: PA-041, Table S2
# PA-034, blaNDM = assay type: cell-based, P. aeruginosa; conditions: PA-034; Table S2
# PA-003, blaVIM = assay type: cell-based, P. aeruginosa; conditions: PA-003, Table S2; for MIC: Pseudomonas aeruginosa, read-out: MIC value
# PA-026, blaNDM = assay type: cell-based, P. aeruginosa; conditions: PA-026, Table S2; for MIC: Pseudomonas aeruginosa, read-out: MIC value
# PA-027, blaIMP = assay type: cell-based, P. aeruginosa; conditions: PA-027; Table S2
# PA-016, blaIMP = assay type: cell-based, P. aeruginosa; conditions: PA-016; Table S2
# PA-014, blaGES = assay type: cell-based, P. aeruginosa; conditions: PA-014, Table S2
# PA-038, blaNDM = assay type: cell-based, P. aeruginosa; conditions: PA-038; Table S2
# PA-036, blaNDM = assay type: cell-based, P. aeruginosa; conditions: PA-036; Table S2
# PA-039, blaNDM = assay type: cell-based, P. aeruginosa; conditions: PA-039, Table S2; for MIC: Pseudomonas aeruginosa, read-out: MIC value
# [2] = Pseudomonas aeruginosa, read-out: MIC value
Structure (SMILES),"Susceptibility category (PA-021, blaIMP)","Susceptibility category (PA-040, blaNDM)","Susceptibility category (PA-030, blaIMP)","Susceptibility category (PA-033, blaNDM)","Susceptibility category (PA-035, blaGES)","Susceptibility category (PA-037, blaIMP/NDM)","Susceptibility category (PA-032, blaIMP)","Susceptibility category (PA-031, blaNDM)","Susceptibility category (PA-042, blaIMP/NDM)","Susceptibility category (PA-025, blaNDM)","Susceptibility category (PA-009, blaGES)","Susceptibility category (PA-002, blaIMP)",Susceptibility category [1],"Susceptibility category (PA-028, blaNDM)","Susceptibility category (PA-044, blaNDM)","Susceptibility category (PA-029, blaIMP)","Susceptibility category (PA-041, blaNDM)","Susceptibility category (PA-034, blaNDM)","Susceptibility category (PA-003, blaVIM)","Susceptibility category (PA-026, blaNDM)",also measured
"NCC[C@H](O)C(=O)N[C@@H]1C[C@H](N)[C@@H](O[C@H]2O[C@H](CN)[C@@H](O)[C@H](O)[C@H]2O)[C@H](O)[C@H]1O[C@H]1O[C@H](CO)[C@@H](O)[C@H](N)[C@H]1O [AMK, amikacin, reference compound]",S,R,R,R,S,R,S,R,R,R,S,R,R,R,R,R,R,R,R,S,"MIC (PA-021, blaIMP; [2]): 16 µg/mL; MIC (PA-035, blaGES): ≤ 4 µg/mL; MIC (PA-009, blaGES; [2]): 16 µg/mL; Susceptibility category (PA-027, blaIMP): R; Susceptibility category (PA-016, blaIMP): R; Susceptibility category (PA-014, blaGES): S; MIC (PA-014, blaGES; [2]): 8 µg/mL; Susceptibility category (PA-038, blaNDM): R; Susceptibility category (PA-036, blaNDM): R; Susceptibility category (PA-039, blaNDM): S; MIC (PA-039, blaNDM): ≤ 4 µg/mL"
"C[C@@H](O)[C@H]1C(=O)N2C(C(=O)O)=C(SCCN=CN)C[C@H]12 [IPM, imipenem, reference compound]",R,R,R,R,R,R,R,R,R,R,R,R,R,R,R,R,R,R,R,I,"MIC (PA-035, blaGES): 8 µg/mL; MIC (PA-042, blaIMP/NDM; [2]): > 8 µg/mL; MIC (PA-002, blaIMP): > 8 µg/mL; MIC (PA-003, blaVIM): > 8 µg/mL; MIC (PA-026, blaNDM): 4 µg/mL; Susceptibility category (PA-027, blaIMP): R; Susceptibility category (PA-016, blaIMP): R; Susceptibility category (PA-014, blaGES): R; Susceptibility category (PA-038, blaNDM): R; Susceptibility category (PA-036, blaNDM): R; Susceptibility category (PA-039, blaNDM): R"
"CNC(C)C1CCC(N)C(OC2C(N)CC(N)C(OC3OCC(C)(O)C(NC)C3O)C2O)O1 (stereo not drawn) [GEN, gentamicin, reference compound]",R,R,R,R,R,R,S,R,R,R,I,R,R,R,R,R,S,R,R,S,"MIC (PA-002, blaIMP): > 8 µg/mL; MIC (PA-041, blaNDM; [2]): ≤ 2 µg/mL; MIC (PA-003, blaVIM): > 8 µg/mL; MIC (PA-026, blaNDM): ≤ 2 µg/mL; Susceptibility category (PA-027, blaIMP): R; Susceptibility category (PA-016, blaIMP): R; Susceptibility category (PA-014, blaGES): R; Susceptibility category (PA-038, blaNDM): R; Susceptibility category (PA-036, blaNDM): R; Susceptibility category (PA-039, blaNDM): S; MIC (PA-039, blaNDM): ≤ 2 µg/mL"
